Experimental data: patent US9274101B2 (BIOLOG, Inc., priority 2001, dated 2016)

What was measured:
Type in all cases: cell-based, human
[1] = tested on: HepG2 cells; assay: HepG2 cells on flat bottom plastic wells, energy sources at a range of concentrations
In short: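 HepG2 cells plated overnight at 4×10^4 cells/cm^2 in glucose-, glutamine- and pyruvate-free DME with 10% HI FBS, then exposed to each energy source at 0.033 to 20 mM final for 48 to 72 h at 37° C, 5% CO2. MTS/PMS colour read at 490 nm (reference 650 nm) after 4-24 h; cell-free plate OD subtracted, data normalised to % negative control (water, no energy source).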

[2] = tested on: HL-60 cells; assay: Effect of 10 mM citric acid on HL-60 energy utilization; conditions: negative control without energy sources and without citric acid
[3] = tested on: HL-60 cells; assay: Effect of 1 mM chloramphenicol on HL-60 energy utilization; conditions: negative control without chloramphenicol
In short: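 Washed HL-60 cells (5×10^4/well) in DME-R with chloramphenicol (1 mM final) were exposed to test energy sources at 0.033 to 20 mM final for 24 h at 37° C, 5% CO2. MTS/MPMS reagent was then added and read 24 h later at 490 nm (650 nm reference). Cell-free plate OD was subtracted, and values were given as % of the negative control without chloramphenicol.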

[4] = energy source 0.03 mM with 10 mM citric acid
[5] = energy source 0.10 mM with 10 mM citric acid
[6] = energy source 0.33 mM with 10 mM citric acid
[7] = energy source 1.00 mM with 10 mM citric acid
[8] = energy source 3.3 mM with 10 mM citric acid
[9] = energy source 10 mM with 10 mM citric acid
[10] = energy source 15 mM with 10 mM citric acid
[11] = energy source 20 mM with 10 mM citric acid
[12] = energy source 0.03 mM with 1 mM chloramphenicol
[13] = energy source 0.10 mM with 1 mM chloramphenicol
[14] = energy source 0.33 mM with 1 mM chloramphenicol
[15] = energy source 1.00 mM with 1 mM chloramphenicol
[16] = energy source 3.3 mM with 1 mM chloramphenicol
[17] = energy source 10 mM with 1 mM chloramphenicol
[18] = energy source 15 mM with 1 mM chloramphenicol
[19] = energy source 20 mM with 1 mM chloramphenicol

Compound: O=C(O)[C@@H]1C[C@@H](O)CN1 [hydroxy L-proline]
- HepG2 Cells Responses After 72 hours in Culture and a 4 hour Color Development Period ([1]; Conc. 0.03 mM): 97.0 % of negative control
- HepG2 Cells Responses After 72 hours in Culture and a 4 hour Color Development Period ([1]; Conc. 0.10 mM): 139.9 % of negative control
- HepG2 Cells Responses After 72 hours in Culture and a 4 hour Color Development Period ([1]; Conc. 0.33 mM): 162.2 % of negative control
- HepG2 Cells Responses After 72 hours in Culture and a 4 hour Color Development Period ([1]; Conc. 1.00 mM): 140.5 % of negative control
- HepG2 Cells Responses After 72 hours in Culture and a 4 hour Color Development Period ([1]; Conc. 3.3 mM): 126.8 % of negative control
- HepG2 Cells Responses After 72 hours in Culture and a 4 hour Color Development Period ([1]; Conc. 10 mM): 123.1 % of negative control
- HepG2 Cells Responses After 72 hours in Culture and a 4 hour Color Development Period ([1]; Conc. 15 mM): 101.3 % of negative control
- HepG2 Cells Responses After 72 hours in Culture and a 4 hour Color Development Period ([1]; Conc. 20 mM): 62.8 % of negative control
- Effect of 10 mM Citric Acid on HL-60 Energy Utilization [2, 4]: 7.6 % of negative control
- Effect of 10 mM Citric Acid on HL-60 Energy Utilization [2, 5]: 17.7 % of negative control
- Effect of 10 mM Citric Acid on HL-60 Energy Utilization [2, 6]: 25.0 % of negative control
- Effect of 10 mM Citric Acid on HL-60 Energy Utilization [2, 7]: 37.5 % of negative control
- Effect of 10 mM Citric Acid on HL-60 Energy Utilization [2, 8]: 49.0 % of negative control
- Effect of 10 mM Citric Acid on HL-60 Energy Utilization [2, 9]: 85.0 % of negative control
- Effect of 10 mM Citric Acid on HL-60 Energy Utilization [2, 10]: 87.4 % of negative control
- Effect of 10 mM Citric Acid on HL-60 Energy Utilization [2, 11]: 68.8 % of negative control
- Effect of 1 mM chloramphenicol on HL-60 Energy Utilization [3, 12]: 1.2 % of negative control
- Effect of 1 mM chloramphenicol on HL-60 Energy Utilization [3, 13]: −5.0 % of negative control
- Effect of 1 mM chloramphenicol on HL-60 Energy Utilization [3, 14]: 2.6 % of negative control
- Effect of 1 mM chloramphenicol on HL-60 Energy Utilization [3, 15]: −1.2 % of negative control
- Effect of 1 mM chloramphenicol on HL-60 Energy Utilization [3, 16]: 4.4 % of negative control
- Effect of 1 mM chloramphenicol on HL-60 Energy Utilization [3, 17]: 1.7 % of negative control
- Effect of 1 mM chloramphenicol on HL-60 Energy Utilization [3, 18]: 15.7 % of negative control
- Effect of 1 mM chloramphenicol on HL-60 Energy Utilization [3, 19]: 0.6 % of negative control

Compound: COC(=O)CCC(=O)O [mono methyl succinate]
- activity at 30 µM ([1]; Homo sapiens, HepG2, 72 h, Conc. 0.03 mM, read-out: HepG2 Cells Responses After 72 hours in Culture and a 4 hour Color Development Period): 144%
- activity at 100 µM ([1]; Homo sapiens, HepG2, 72 h, Conc. 0.10 mM, read-out: HepG2 Cells Responses After 72 hours in Culture and a 4 hour Color Development Period): 161%
- activity at 330 µM ([1]; Homo sapiens, HepG2, 72 h, Conc. 0.33 mM, read-out: HepG2 Cells Responses After 72 hours in Culture and a 4 hour Color Development Period): 179%
- activity at 1000 µM ([1]; Homo sapiens, HepG2, 72 h, Conc. 1.00 mM, read-out: HepG2 Cells Responses After 72 hours in Culture and a 4 hour Color Development Period): 180%
- activity at 3300 µM ([1]; Homo sapiens, HepG2, 72 h, Conc. 3.3 mM, read-out: HepG2 Cells Responses After 72 hours in Culture and a 4 hour Color Development Period): 200%
- activity at 10000 µM ([1]; Homo sapiens, HepG2, 72 h, Conc. 10 mM, read-out: HepG2 Cells Responses After 72 hours in Culture and a 4 hour Color Development Period): 224%
- activity at 15000 µM ([1]; Homo sapiens, HepG2, 72 h, Conc. 15 mM, read-out: HepG2 Cells Responses After 72 hours in Culture and a 4 hour Color Development Period): 357%
- activity at 20000 µM ([1]; Homo sapiens, HepG2, 72 h, Conc. 20 mM, read-out: HepG2 Cells Responses After 72 hours in Culture and a 4 hour Color Development Period): 238%
- Effect of 10 mM Citric Acid on HL-60 Energy Utilization [2, 4]: 4.9 % of negative control
- Effect of 10 mM Citric Acid on HL-60 Energy Utilization [2, 5]: 13.0 % of negative control
- Effect of 10 mM Citric Acid on HL-60 Energy Utilization [2, 6]: 16.9 % of negative control
- Effect of 10 mM Citric Acid on HL-60 Energy Utilization [2, 7]: 51.7 % of negative control
- Effect of 10 mM Citric Acid on HL-60 Energy Utilization [2, 8]: 163.6 % of negative control
- Effect of 10 mM Citric Acid on HL-60 Energy Utilization [2, 9]: 210.0 % of negative control
- Effect of 10 mM Citric Acid on HL-60 Energy Utilization [2, 10]: 192.3 % of negative control
- Effect of 10 mM Citric Acid on HL-60 Energy Utilization [2, 11]: 173.9 % of negative control
- Effect of 1 mM chloramphenicol on HL-60 Energy Utilization [3, 12]: 10.4 % of negative control
- Effect of 1 mM chloramphenicol on HL-60 Energy Utilization [3, 13]: −2.1 % of negative control
- Effect of 1 mM chloramphenicol on HL-60 Energy Utilization [3, 14]: 2.6 % of negative control
- Effect of 1 mM chloramphenicol on HL-60 Energy Utilization [3, 15]: 1.8 % of negative control
- Effect of 1 mM chloramphenicol on HL-60 Energy Utilization [3, 16]: 43.3 % of negative control
- Effect of 1 mM chloramphenicol on HL-60 Energy Utilization [3, 17]: 78.1 % of negative control
- Effect of 1 mM chloramphenicol on HL-60 Energy Utilization [3, 18]: 47.8 % of negative control
- Effect of 1 mM chloramphenicol on HL-60 Energy Utilization [3, 19]: 16.2 % of negative control
